Source: PubChem BioAssay (NCI)
Values joined by “and” are separate entries in the source; they are usually repeats but may differ in a detail not shown here. Identical values can stand only once.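 Five compound concentrations were applied to cells in 96-well plates for 48 hours; endpoints were derived by simple linear interpolation of the resulting dose-response curve. The concentration for 50% growth inhibition is given as GI50. TGI: concentration producing complete growth inhibition.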

Key:
Assay in all cases: NCI tumour cell line growth inhibition, 48 h
SNB-78 CNS = tested on: SNB-78 CNS
RXF-631 renal = tested on: RXF-631 renal
KM20L2 colon = tested on: KM20L2 colon
DLD-1 colon = tested on: DLD-1 colon
DMS 273 small cell lung = tested on: DMS 273 small cell lung
M19-MEL melanoma = tested on: M19-MEL melanoma
HOP-18 NSCLC = tested on: HOP-18 NSCLC
XF 498 CNS = tested on: XF 498 CNS
MDA-N = tested on: MDA-N
SN12K1 renal = tested on: SN12K1 renal
P388 leukemia = tested on: P388 leukemia

Row | SMILES | TGI (SNB-78 CNS) | TGI (RXF-631 renal) | TGI (KM20L2 colon) | TGI (DLD-1 colon) | TGI (DMS 273 small cell lung) | TGI (M19-MEL melanoma) | TGI (HOP-18 NSCLC) | TGI (XF 498 CNS) | TGI (MDA-N) | other results
1 | Cc1cc2c(c(C(N)=O)c1C)-c1ccccc1C2=O | > 100 µM | > 100 µM | > 100 µM | > 100 µM | > 100 µM | > 100 µM | > 100 µM |  |  | 
2 | CC(C(=O)c1ccc(Cl)cc1)/C(=N/NC(=O)NN)C(=O)Nc1cccc(C(F)(F)F)c1 (centres undefined) | > 100 µM | > 100 µM | > 100 µM | > 100 µM | > 100 µM | > 100 µM | > 100 µM | > 100 µM |  | 
3 | Cc1ccccc1C1=[N+]([O-])c2ccc(Cl)cc2C1=O |  | 16.8 µM | 16.9 µM | 19.6 µM |  | 21.2 µM | 35.4 µM | 14.3 µM |  | 
4 | CN(C)C(=S)SSC(=S)N(C)C | > 100 µM | > 100 µM | > 100 µM | > 64 µM | > 100 µM | > 40 µM | > 100 µM | > 88.3 µM | 30.3 µM and 50.9 µM | 
5 | COC(=O)/C([Se]c1c(C)cc(C)cc1C)=C(/[Se]c1c(C)cc(C)cc1C)C(=O)OC | > 100 µM | > 100 µM | > 100 µM | > 100 µM | > 100 µM | > 100 µM | > 100 µM |  |  | 
6 | CCC1CN2CCc3cc(OC)c(OC)cc3C2CC1CC1c2cc(OC)c(OC)cc2CCN1C(=O)C1CCCN1 (centres undefined) | > 100 µM | 90.8 µM |  | 77.4 µM | > 100 µM | 36.6 µM | > 100 µM | 39.2 µM |  | 
7 | CC(C)CC(C/C=C1/CC(CO)(COC(=O)C(C)(C)C)OC1=O)CC(C)C (centres undefined) |  |  |  |  |  |  |  |  | 6.28 µM and 17.6 µM | GI50 (MDA-N): 0.2 µM and 0.849 µM
8 | CCC(C)(O)c1cnc(CC(C)C)c(=O)n1O (centres undefined) |  |  |  |  |  |  |  |  | > 100 µM | 
9 | COc1cc(/C=C2\[C@H]3c4c(c(OC)c(C)c(OC)c4OC)CC(C(=O)N2Cc2ccccc2)N3C)c(OC)c(C)c1OC |  |  | 37.2 µM | > 100 µM | 38.6 µM | 33.1 µM | 50.2 µM |  |  | 
10 | OC(c1cc(-c2ccc(C(F)(F)F)cc2)nc(C(F)(F)F)c1)C1CCCCN1 (centres undefined) |  |  |  |  |  |  |  |  | 3.04 µM | 
11 | CCOC(=O)NC(=O)c1cn(C2CCCCC2)c(=O)[nH]c1=O | > 100 µM | > 100 µM | > 100 µM | > 100 µM | > 100 µM | > 100 µM | > 100 µM | > 100 µM |  | 
12 | CC(C)CCC[C@@H](C)C1CCC2[C@@H]3CC=C4C[C@@H](C(=O)NCCN(C)C)CC[C@]4(C)C3CC[C@@]21C (some centres undefined) | > 100 µM |  | > 100 µM | > 100 µM | > 100 µM | 39.7 µM | 66.6 µM | 48.7 µM |  | 
13 | COc1c(C)n(CCO)ccc1=O | > 100 µM | > 100 µM | > 100 µM | > 100 µM | > 100 µM | > 100 µM |  | > 100 µM |  | 
14 | CN(C)CCNCCN |  |  |  |  |  |  |  |  | > 100 µM | 
15 | O=C(/C=C/c1ccccc1)c1ccccc1 |  |  |  |  |  |  |  |  | > 10 µM | 
16 | Cn1c(=O)c2c(nc(C(=N)SCC(=O)O)n2C)n(C)c1=O |  |  |  |  |  |  |  |  | > 100 µM | 
17 | Nc1ccccc1C(=O)/C=C/c1c(O)ccc2ccccc12 | > 100 µM | > 100 µM | > 100 µM | > 100 µM | > 100 µM | 43.4 µM | > 100 µM |  |  | 
18 | CC1CC(O)C(=O)C(O[C@@H]2C[C@@H]3CC[C@@H]4[C@H](CC[C@]5(C)C(C6=CC(=O)OC6)CC[C@]45O)[C@@]3(C=O)C[C@H]2O)O1 (some centres undefined) |  |  |  |  |  |  |  |  | 0.199 µM | 
19 | Cc1[nH]c2ccccc2c1C1Cc2ccccc2N1C(=O)C#Cc1ccc([N+](=O)[O-])cc1 (centres undefined) | > 100 µM |  | > 100 µM | > 100 µM |  |  | > 100 µM | > 100 µM |  | 
20 | Cn1c(=O)nc2n(-c3cc(C(F)(F)F)cc(C(F)(F)F)c3)c3ccccc3nc-2c1=O | > 100 µM |  | > 100 µM |  | > 100 µM | 29.5 µM |  | > 100 µM |  | 
21 | CC(=O)N1CCN(c2ccc(OCC3COC(Cn4ccnc4)(c4ccc(Cl)cc4Cl)O3)cc2)CC1 (centres undefined) |  |  | > 100 µM | > 100 µM | 61.4 µM | 45.1 µM | > 100 µM |  |  | 
22 | COC(=O)C1C(O)C(C(=O)OC)C(C)N(C)C1C (centres undefined) |  |  |  |  |  |  |  |  | > 100 µM | 
23 | COC(=O)C(=O)C(C(C)=O)C(=O)NCc1ccc(OC)c(OC)c1 (centres undefined) | > 100 µM | > 100 µM | > 100 µM | > 100 µM | > 100 µM | > 100 µM | > 100 µM | > 100 µM |  | 
24 | CCOP(=O)(OCC)C(C(=O)OC)C(=O)C(=O)Nc1ccc(Cl)cc1Cl (centres undefined) | > 100 µM |  | > 100 µM | > 100 µM | > 100 µM | > 100 µM | > 100 µM |  |  | 

Row | SMILES | TGI (SNB-78 CNS) | TGI (RXF-631 renal) | TGI (KM20L2 colon) | TGI (DLD-1 colon) | TGI (DMS 273 small cell lung) | TGI (M19-MEL melanoma) | TGI (HOP-18 NSCLC) | TGI (XF 498 CNS) | TGI (MDA-N) | other results
25 | Cc1ccc(C)c(N2C/C(=N\NC(=O)CC#N)C(c3nc4ccccc4s3)C(=O)C2=O)c1 (centres undefined) | > 100 µM |  | > 100 µM | > 100 µM | > 100 µM | > 100 µM | > 100 µM | > 100 µM |  | 
26 | O=[N+]([O-])c1cccc(C2=NOC(C3CCCCC3)C2)c1 (centres undefined) | > 100 µM | > 100 µM |  | > 100 µM | > 100 µM | > 100 µM | > 100 µM |  |  | 
27 | COC(=O)C1=COC(C)C2CN3CCc4c([nH]c5ccccc45)C3CC12 (centres undefined) |  |  |  |  |  |  |  |  | > 100 µM | GI50 (MDA-N): 31.6 µM and > 100 µM
28 | Cc1cccc(C2=C/C(=C(\SS/C(C(=O)c3ccc(OCC(=O)O)c(Cl)c3Cl)=C3\C=C(c4cccc(C)c4)SS3)C(=O)c3ccc(OCC(=O)O)c(Cl)c3Cl)SS2)c1 | 80.6 µM |  | > 100 µM | > 100 µM | 83.6 µM | > 60.1 µM | 50.5 µM | 54.6 µM |  | 
29 | Nc1nc(-c2ccc(Cl)c([N+](=O)[O-])c2)cs1 | > 100 µM | > 100 µM | > 100 µM | > 100 µM | > 100 µM | > 100 µM | > 100 µM | 86.6 µM |  | 
30 | COc1ccc(C(CC(=O)c2ccc3c(c2)OCO3)c2c(O)c3ccccc3oc2=O)cc1OC (centres undefined) |  |  |  |  |  |  |  |  | > 100 µM | 
31 | Nc1ccccc1O.O.O=C(O)C1[O][Sb][O]C1C(=O)O (centres undefined) |  |  |  |  |  |  |  |  | 42.2 µM | GI50 (MDA-N): 17.4 µM
32 | CN(C(=O)c1ccc([N+](=O)[O-])cc1)c1ccccc1 | > 100 µM | > 100 µM | > 100 µM | > 100 µM | > 100 µM | > 100 µM | > 100 µM | > 100 µM |  | 
33 | CCC/C=C/C=C/C1CC(O)C(O)C(=O)C1CO (centres undefined) |  |  |  |  |  |  |  |  | > 100 µM | 
34 | CC(C)(C)c1ccc2c(c1)S(=O)(=O)Nc1ccc(Cl)cc1NS(=O)(=O)c1cc(C(C)(C)C)ccc1OCCOCCOCCO2 | > 100 µM |  |  | > 100 µM | > 100 µM | > 100 µM | > 100 µM |  |  | 
35 | CO[C@H]1Nc2c(ccc(C)c2O)C(=O)N2C=C(/C=C/C(N)=O)C[C@@H]12 | 18.4 µM |  | 0.891 µM | > 47.6 µM | 0.118 µM | 0.0939 µM | > 100 µM |  | 0.0283 µM | TGI (SN12K1 renal): 0.0473 µM; TGI (P388 leukemia): 0.283 µM
36 | CCOCN1COCN(C)C1=O | > 100 µM | > 100 µM | > 100 µM | > 100 µM | > 100 µM | > 100 µM | > 100 µM | > 100 µM |  | 
37 | COC(=O)/C(=N/O)C(C(=O)C=C(C)C)C(=O)C(=O)Nc1nc2ccc([N+](=O)[O-])cc2s1 (centres undefined) | > 100 µM |  | > 100 µM |  | > 100 µM | > 100 µM |  | > 100 µM |  | 
38 | O=C(CC(=O)C1CCOC1=O)C(=O)Nc1cccc(Cl)c1 (centres undefined) | > 100 µM | > 100 µM | > 100 µM | > 100 µM | > 100 µM | > 100 µM | > 100 µM |  |  | 
39 | Nc1c(-c2ccccc2-c2c(N)[n+]([O-])c3ccccc3[n+]2[O-])[n+]([O-])c2ccccc2[n+]1[O-] | > 100 µM |  | > 100 µM | > 100 µM | 38.7 µM | 60.3 µM | > 86 µM |  |  | 
40 | CCCC(=O)C1=C(O)C(Cc2c(O)c(C)c(O)c(C(=O)CCC)c2O)=C(O)C(C)(C)C1=O |  |  |  |  |  |  |  |  | > 50 µM | 
41 | N#CC(=Nc1ccccc1N(C(=O)c1ccccc1)C(=O)c1ccccc1)c1ccccc1 | > 100 µM |  | > 100 µM | > 100 µM | > 100 µM | > 100 µM | > 100 µM | > 100 µM |  | 
42 | COc1ccc(C(=O)c2cc(OC)c(OC)c(OC)c2)cc1OC |  |  |  |  |  |  |  |  | > 100 µM | 
43 | COC(c1ccc(C(C)(C)C)cc1)(c1ccc(C(C)(C)C)cc1)c1ccc(C(C)(C)C)cc1 |  |  |  |  |  |  |  |  | > 100 µM | 
44 | CCN1c2ccccc2-c2c3c1cc(C)cc3c1ccccc1[n+]2CC | 12 µM | 43.4 µM |  | 17.8 µM | 1.58 µM | 1.27 µM |  |  |  | 
45 | CC1=C(C#N)C(=O)CC(c2ccc(Cl)cc2)N(C)N1 (centres undefined) | > 100 µM |  |  | > 100 µM |  |  | > 100 µM | > 100 µM |  | 
46 | NCCNCC1CCNCC1 |  |  |  |  |  |  |  |  | > 100 µM | 
47 | COC(=O)c1cc2c(o1)-c1nccc3c1c(nc1ccccc13)C2=O |  |  |  |  |  |  |  |  | 2.22 µM | GI50 (MDA-N): 0.691 µM
48 | COc1cccc(/C=N/[N-]C(=O)c2ccncc2)c1[O-].COc1cccc(/C=N/[N-]C(=O)c2ccncc2)c1[O-].[O]=[U](=[O])([OH2+])[OH2+] | > 100 µM |  | > 100 µM | > 100 µM | > 56.6 µM | > 100 µM | 88.6 µM | 37.6 µM |  | GI50 (SNB-78 CNS): > 87.7 µM; GI50 (KM20L2 colon): 3.14 µM; GI50 (XF 498 CNS): 4.75 µM; GI50 (DLD-1 colon): 4.19 µM; GI50 (DMS 273 small cell lung): 4.2 µM; GI50 (M19-MEL melanoma): 5.83 µM; GI50 (HOP-18 NSCLC): 12.1 µM
